Assay results reported in paper PMC7613515, “Reading and erasing of the phosphonium analogue of trimethyllysine by epigenetic proteins” (Communications Chemistry, 2022).

Target: T1, KDM5APHD3 (JARID1A-PHD3, residues M1489–V1641) (Homo sapiens, UniProt P29375)
T1 construct: KDM5APHD3 (JARID1A-PHD3, residues M1489–V1641); made in house; host or cells: E. coli
T1 sequence (P29375 1489-1641): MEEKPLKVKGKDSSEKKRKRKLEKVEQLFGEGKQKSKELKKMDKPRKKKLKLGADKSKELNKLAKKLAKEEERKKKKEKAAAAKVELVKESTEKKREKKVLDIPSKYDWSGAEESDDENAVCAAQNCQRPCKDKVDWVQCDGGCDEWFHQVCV
Experiment: ITC, association of histone H3 peptides with KDM5APHD3
Format: binding
Details: 25 °C, H3 1-10 peptide, Tris (50 mM), NaCl (20 mM), pH 7.5, from 3 to 5 experiments, ± SD
Text: We investigated the thermodynamics of association of the H3KP4me3 peptide with five representative human reader domains containing either a PHD zinc finger or TTD, i.e. KDM5APHD3 (JARID1A-PHD3, residues M1489–V1641)[10], TAF3PHD (R857–K924)[22], BPTFPHD (L2583–N2751)[23], SGF29TTD (R115–K293)[24] and KDM4ATTD (JMJD2A, Q897-P1011)[25], selected on the basis of their preference for binding Ν^ε-trimethyllysine over other (non)methylation marks (Kme0 < Kme1 < Kme2 < Kme3), and their domain and aromatic cage diversity. The recombinant readers were produced in E. coli following reported procedures. Isothermal titration calorimetric (ITC) analyses were used to determine the dissociation constant (Kd), the Gibbs free energy of binding (ΔG°), the enthalpy of binding (ΔH°), and the entropy of binding (ΔS°). […] (Table 1, Fig. 2, Supplementary Fig. 1).
The following purified reader domains: TAF3PHD (R857-K924), KDM5APHD3 (JARID1A, M1489-V1641), BPTFPHD (L2583-N2751), KDM4ATTD (JMJD2A, Q897-P1011) and SGF29TTD (R115-K293) were prepared as reported[10],[22]–[26]. The histone lysine demethylase were produced and purified to high purity via reported procedures KDM3A (JMJD1A, T515-S1317)[41], KDM4AJmjC[39] (JMJD2A, M1-L359), KDM4EJmjC (JMJD2E, M1–Q337)[34] and KDM7B[40] (PHF8, M37-N483 [NP_001171]). KDM5DJmjC was produced using an N-terminal hexa-His tagged KDM4D (KDM4DM1-L358) DNA construct, transformed into BL21(DE3) competent cells for recombinant protein production. Colonies were used to inoculate of LB media (50 mL) containing kanamycin (50 µg·mL^−1) and chloramphenicol (34 µg·mL^−1), which was placed in a 37 °C shaker overnight. The starter culture (10 mL) was used to inoculate TB media (6 × 1 L) containing kanamycin (50 µg·mL^−1) in 2 L baffled shaker flasks. After reaching an of OD600 of ~0.8, the temperature was reduced to 18 °C; at OD600 ~0.9 the cells were induced by the IPTG (0.5 mM) addition. After shaking overnight, the culture was centrifuged (5000 rpm, 10 mins), the media was decanted, and the cell pellet was suspended in Lysis Buffer [HEPES (50 mM), NaCl (500 mM), imidazole (20 mM), glycerol (5%) and TCEP (0.5 mM) in water (pH 7.4)]. The suspension was lysed by passaging through a high-pressure cell breaker (Avestin – EmulsiFlex-C5) for three rounds. The lysate was cleared by centrifugation (60 minutes, 36,000 × g, 4 °C), then loaded onto a Ni NTA gravity column. […]
ITC studies followed a reported procedure. […] Histone peptide titrations were performed with the same reader batches. Solutions of the reader in buffer (25–40 µM) and of the histone H3 peptide (350–600 µM) in buffer were prepared. […] Heats of dilution for histone peptides determined in control experiments were subtracted from the titration binding data. […]

C[C@H](N)C(=O)N[C@@H](CCCNC(=N)N)C(=O)N[C@H](C(=O)N[C@@H](CCCC[P+](C)(C)C)C(=O)N[C@@H](CCC(N)=O)C(=O)N[C@H](C(=O)N[C@@H](C)C(=O)N[C@@H](CCCNC(=N)N)C(=O)N[C@@H](CCCCN)C(=O)N[C@@H](CO)C(N)=O)[C@@H](C)O)[C@@H](C)O [H3KP4me3]
-TΔS°: 1.9 ± 0.1 kcal/mol
ΔG°: -9.1 ± 0.1 kcal/mol
ΔH°: -11.0 ± 0.1 kcal/mol
